According to ChEMBL document CHEMBL1131550, “Conformationally constrained inhibitors of caspase-1 (interleukin-1 beta converting enzyme) and of the human CED-3 homologue caspase-3 (CPP32, apopain)” (Bioorg Med Chem Lett, 1998):

Legend:
[1] = target: T1, Caspase-1 (Mus musculus, UniProt P29452); experiment: Inhibitory activity against Caspase-1 using Ac-TyrValAlaAsp-amc as substrate
T1 sequence (P29452 whole entry): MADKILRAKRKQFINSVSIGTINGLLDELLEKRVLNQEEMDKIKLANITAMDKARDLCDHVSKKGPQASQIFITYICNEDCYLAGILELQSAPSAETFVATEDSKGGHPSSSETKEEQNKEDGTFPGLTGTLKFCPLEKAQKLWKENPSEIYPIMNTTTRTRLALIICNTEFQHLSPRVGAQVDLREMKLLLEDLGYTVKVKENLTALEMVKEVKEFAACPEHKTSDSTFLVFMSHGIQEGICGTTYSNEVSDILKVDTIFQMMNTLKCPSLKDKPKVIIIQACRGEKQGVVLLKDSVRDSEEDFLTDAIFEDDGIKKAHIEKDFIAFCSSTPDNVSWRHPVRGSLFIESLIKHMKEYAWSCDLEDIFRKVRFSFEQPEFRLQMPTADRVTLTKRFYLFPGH

[2] = target: T2, Caspase-3 (Homo sapiens, UniProt P42574); experiment: Inhibitory activity against human Caspase-3 using Ac-AspGluValAsp as substrate
T2 sequence (P42574 whole entry): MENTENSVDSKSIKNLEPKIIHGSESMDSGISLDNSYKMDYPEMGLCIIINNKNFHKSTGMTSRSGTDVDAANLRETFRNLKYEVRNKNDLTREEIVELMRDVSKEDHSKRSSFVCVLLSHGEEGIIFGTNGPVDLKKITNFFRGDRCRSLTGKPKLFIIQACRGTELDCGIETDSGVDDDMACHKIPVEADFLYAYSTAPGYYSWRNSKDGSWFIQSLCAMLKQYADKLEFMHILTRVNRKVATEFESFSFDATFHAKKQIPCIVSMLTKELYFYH

| Structure (SMILES) | IC50 [1] [µM] | IC50 [2] [µM] |
| --- | --- | --- |
| CC(C)[C@H](NC(=O)OCc1ccccc1)C(=O)N1CCC[C@H]1C(=O)N[C@H]1CC(=O)OC1O (stereo partly drawn) | 0.087 |  |
| CC(=O)N[C@@H](CC(=O)O)C(=O)N[C@@H](CCC(=O)O)C(=O)N[C@H](C(=O)N[C@H]1CC(=O)OC1O)C(C)C (stereo partly drawn) | 0.071 | 0.0012 |
| CC(=O)N[C@@H](Cc1ccc(O)cc1)C(=O)N[C@H](C(=O)N[C@@H](C)C(=O)N[C@H]1CC(=O)OC1O)C(C)C (stereo partly drawn) | 0.0046 |  |
| O=C1C[C@H](NC(=O)[C@@H]2CS[C@@H]3CCC[C@H](NC(=O)OCc4ccccc4)C(=O)N32)C(O)O1 (stereo partly drawn) | 0.159 | > 10 |
| CC(=O)N[C@@H](CC(=O)O)C(=O)N[C@H](C(=O)N[C@@H](C)C(=O)N[C@H]1CC(=O)OC1O)C(C)C (stereo partly drawn) | 0.523 |  |
| C[C@@H](C(=O)N[C@H]1CC(=O)OC1O)N1CCCC[C@H](NC(=O)OCc2ccccc2)C1=O (stereo partly drawn) | 0.186 | > 10 |
| O=C(CN1CC[C@H](NC(=O)OCc2ccccc2)C1=O)N[C@H]1CC(=O)OC1O (stereo partly drawn) | > 10 | > 10 |
| CC(C)[C@H](NC(=O)OCc1ccccc1)C(=O)N1CCCC[C@H]1C(=O)N[C@H]1CC(=O)OC1O (stereo partly drawn) | 0.095 |  |
| O=C1C[C@H](NC(=O)[C@@H]2CS[C@H]3CC[C@H](NC(=O)OCc4ccccc4)C(=O)N32)C(O)O1 (stereo partly drawn) | 4.8 |  |

More lines, in order of falling IC50 [1], values ahead:

| IC50 [1] [µM] | IC50 [2] [µM] | Structure (SMILES) |
| --- | --- | --- |
| 37 | > 100 | O=C(CN1CCC[C@H](NC(=O)OCc2ccccc2)C1=O)N[C@H]1CC(=O)OC1O (stereo partly drawn) |
| 10.4 | 0.018 | CC(=O)N[C@@H](CC(=O)O)C(=O)N[C@H]1CCC[C@H]2SC[C@@H](C(=O)N[C@H]3CC(=O)OC3O)N2C1=O (stereo partly drawn) |
| 3.7 | > 100 | C[C@@H](C(=O)N[C@H]1CC(=O)OC1O)N1CC[C@H](NC(=O)OCc2ccccc2)C1=O (stereo partly drawn) |
| 1.68 |  | O=C(CN1CCCC[C@H](NC(=O)OCc2ccccc2)C1=O)N[C@H]1CC(=O)OC1O (stereo partly drawn) |
| 0.064 |  | CC(C)[C@H](NC(=O)OCc1ccccc1)C(=O)N[C@@H](C)C(=O)N[C@H]1CC(=O)OC1O (stereo partly drawn) |
| 0.036 | > 10 | O=C1C[C@H](NC(=O)[C@@H]2CCC[C@@H]3CCC[C@H](NC(=O)OCc4ccccc4)C(=O)N32)C(O)O1 (stereo partly drawn) |
